Laboratory results as given in patent US20110217394A1, “Iridoid Based Formulations” (priority 2000, published 2011).

Key:
[1] = HPLC-PDA quantitation of iridoids (DAA, AA), with method validation, precision and stability assays; conditions: fresh noni juice; for Amount detected, Inter-day: inter-day precision and stability assay over 3 consecutive days; for Amount detected, Day 1 / Amount detected, Day 2 / Amount detected, Day 3: intra-day precision and stability assay; for Amount detected, Day 1: n = 3, Day 1; for Amount detected, Day 2: n = 3, Day 2; for Amount detected, Day 3: n = 3, Day 3
Source text: Acetonitrile (MeCN), methanol (MeOH), and water (H2O) of HPLC grade were obtained from Sigma-Aldrich (St. Louis, Mo., USA). Formic acid of analytical grade was purchased from Spectrum Chemical Mfg. Corp. (New Brunswick, N.J., USA). The chemical standard deacetylasperulosidic acid (DAA, 1) and asperulosidic acid (AA, 2) were isolated from noni fruits in our laboratory. […] They were accurately weighed and then dissolved in an appropriate volume of MeCN to produce corresponding stock solutions. The working standard solution of 1 and 2 for the calibration curve was prepared by diluting the stock solution with MeOH in seven concentration increments ranging from 0.00174-1.74 and 0.0016-0.80 mg/mL, respectively. All stock and working solutions were maintained at […] in a refrigerator. The calibration curves of standards were plotted after linear regression of the peak areas versus concentrations.
(§1) Tahitian noni fruit puree as used in this example is the mashed whole fruit, excluding seeds and pericarp. The fruits were originally collected from the Tahitian Islands. One gram of the puree was diluted with 5 mL of H2O—MeOH (1:1) and mixed thoroughly. The solution was then filtered through a nylon microfilter (0.45-μm pore size); the solution was collected into a 5 mL volumetric flask for HPLC analysis. Four batches of noni puree were analyzed in the experiments. Voucher specimens of the noni fruit puree are deposited in our lab. To test iridoid stability, a DAA solution of 0.5 mg/mL was prepared with MeOH. This solution was heated in a water-bath at 90° C. for 1 min, cooled to room temperature, and analyzed by HPLC.
Chromatographic separation was performed on a Waters 2690 separations module coupled with 996 PDA detectors, and equipped with an Atlantis C18 column (4.6 mm×250 mm; 5 Waters Corporation, Milford, Mass., USA). The pump was connected to two mobile phases: A; MeCN, and B; 0.1% formic acid in H2O (v/v), and eluted at a flow rate of 0.8 mL/min. The mobile phase was programmed consecutively in linear gradients as follows: 0-5 min, 0% A; and 40 min, 30% A. The PDA detector was monitored in the range of 210-400 nm (235 nm was selected for quantitative analysis). The injection volume was 10 μL for each of the sample solutions. The column temperature was maintained at 25° C. Data collection and integration were performed using Waters Millennium software revision 32.
The limits of detection (LOD) and quantitation (LOQ) were defined as the lowest concentrations of analytes in a sample that can be detected and quantified. These LOD and LOQ limits were determined on the basis of signal-to-noise ratios (S/N) of 3:1 and 10:1, respectively. The working solutions of standards 1 and 2 for LOD and LOQ were prepared by diluting them sequentially. The intra- and inter-day precision assays, as well as stability tests were performed by following the method applied to the sample analysis for 3 consecutive days. Accuracy of the method (recovery) was assessed by the recovery percentage of iridoids 1 and 2 in the spiked samples. The noni fruit puree samples were spiked with standards at 3 different concentrations (equivalent to 50%, 100% and 150% concentration of 1 and 2 in the samples). The recovery percentage was calculated using the ratio of concentration detected (actual) to those spiked (theoretical). Variation was evaluated by the relative standard deviation (RSD) of triplicate injections in the HPLC experiments.
The iridoid content, inclusive of deacetylasperulosidic acid (DAA) and asperulosidic acid (AA), was determined by HPLC, according to a previously reported method (Deng et al., 2010 b). Other significant secondary metabolites, such as scopoletin, rutin, and quercetin, were also determined by HPLC (Deng et al., 2010 a).
HPLC grade acetonitrile (MeCN), methanol (MeOH), and water (H2O) were obtained from Sigma-Aldrich (St. Louis, Mo., USA). Analytical grade formic acid was purchased from Spectrum Chemical Mfg. Corp. (New Brunswick, N.J., USA). […]

E. coli PQ37 [2] = test: Primary DNA damage test (SOS-chromotest); format: cell-based; conditions: for mean induction factor: 1000 μg mL^-1, less than two indicates absence of genotoxic activity; for induction of SOS repair: all concentrations tested, 7.81-1000 μg mL^-1
Protocol: The SOS-chromotest in E. coli PQ37 was used to determine the potential for DAA and AA to induce primary DNA damage. This test was carried out according to the previously developed method (Fish et al., 1987). […] E. coli PQ37 was incubated in LB medium in a 96-well plate at 37° C. in the presence of DAA or AA for 2 hours. The DAA and AA concentrations tested were 7.81, 15.6, 31.2, 62.5, 125, 250, 500, and 1000 μg mL^−1. Samples were evaluated in triplicate. Following incubation with the samples, 5-bromo-4-chloro-3-indolyl-β-D-galactopyranoside was added to the wells to detect β-galactosidase enzyme activity, which is induced during SOS repair of damaged DNA. Nitrophenyl phosphate is also added to the wells to measure alkaline phosphatase activity, an indicator of cell viability. The samples were again incubated and the absorbances of the samples, blanks and controls were measured at 410 and 620 nm with a microplate reader. […] The induction factor of each material was calculated by dividing the absorbance of the sample at 620 nm by that of the blank, while also correcting for cell viability. Induction factors less than two indicate an absence of genotoxic activity.

E. coli PQ37 [3] = format: cell-based; conditions: 250 ug mL^-1 iridoid plus 1.25 ug mL^-1 4NQO; blank = 1
Protocol: The SOS-chromotest in E. coli PQ37 was used to determine the potential for iridoids in noni fruit from French Polynesia to prevent primary DNA damage. E. coli PQ37 was incubated at 37° C. in the presence of deacetylasperulosidic acid and asperulosidic acid at a concentration of 250 ug mL^−1 in a 96-well plate. Replicate samples were evaluated. […] Following incubation with the samples, 5-bromo-4-chloro-3-indolyl-β-D-galactopyranoside was added to the wells to detect β-galactosidase enzyme activity, which is induced during SOS repair of damaged DNA. The samples were again incubated for 90 minutes and the absorbances of the samples, blank and positive control were measured at 620 nm with a microplate reader. The β-galactosidase enzyme activity induction factor of each material was calculated by dividing the absorbance of the sample at 620 nm by that of the blank, while also correcting for cell viability.

E. coli PQ37 [4] = test: Anti-genotoxicity test (SOS-chromotest with 4NQO, Example Three); format: cell-based; conditions: for reduction in genotoxicity: 250 μg iridoid plus 1.25 μg mL^-1 4NQO; for induction factor of 4NQO plus iridoid compared with vehicle blank: 250 μg mL^-1 iridoid plus 1.25 μg mL^-1 4NQO
Protocol: The primary DNA damage test was performed again, similar to the method described above. […] Induction factors were calculated in the same manner as described above.

mammalian cells = conditions: cited from earlier work
[5] = Thermal stability of DAA under pasteurization conditions (HPLC); format: physicochemical; conditions: 90° C. at pH 3.3 for one minute
Protocol: as §1
Noni fruit juice is usually subjected to heat pasteurization during commercial processing. Pasteurization is usually employed in noni industry, i.e., heating up to 87.7° C. for several seconds. In this study, the stability of DAA was conducted. DAA was exposed to 90° C. at pH 3.3 for one minute to determine its thermal stability at acidic conditions.

[6] = 7.81 μg mL^−1, E. coli PQ37, 2 hours
[7] = 15.6 μg mL^−1, E. coli PQ37, 2 hours
[8] = 31.2 μg mL^−1, E. coli PQ37, 2 hours
[9] = 62.5 μg mL^−1, E. coli PQ37, 2 hours
[10] = 125 μg mL^−1, E. coli PQ37, 2 hours
[11] = 250 μg mL^−1, E. coli PQ37, 2 hours
[12] = 500 μg mL^−1, E. coli PQ37, 2 hours
[13] = 1000 μg mL^−1, E. coli PQ37, 2 hours

Compound | Amount detected, Inter-day [1] | Amount detected, Day 1 [1] | Amount detected, Day 2 [1] | Amount detected, Day 3 [1] | Induction factor (E. coli PQ37 [2]; [6]) | Induction factor (E. coli PQ37 [2]; [7]) | Induction factor (E. coli PQ37 [2]; [8]) | Induction factor (E. coli PQ37 [2]; [9]) | Induction factor (E. coli PQ37 [2]; [10]) | Induction factor (E. coli PQ37 [2]; [11]) | Induction factor (E. coli PQ37 [2]; [12]) | mean induction factor (E. coli PQ37 [2]) | Induction factor (E. coli PQ37 [2]; [13]) | induction of SOS repair (E. coli PQ37 [2]) | β-galactosidase enzyme activity induction factor of iridoid plus 4NQO (mean±standard deviation) (E. coli PQ37 [3]) | reduction in genotoxicity (E. coli PQ37 [4]) | induction factor of 4NQO plus iridoid compared with vehicle blank (E. coli PQ37 [4]) | genotoxicity in mammalian cells (mammalian cells) | thermal stability (DAA content before and after heating) [5]
O=C(O)C1=CO[C@@H](O[C@@H]2O[C@H](CO)[C@@H](O)[C@H](O)[C@H]2O)[C@@H]2C(CO)=C[C@H](O)[C@H]12 [DAA, deacetylasperulosidic acid] | 1.297 mg/mL | 1.308 mg/mL | 1.291 mg/mL | 1.291 mg/mL | 0.93 ± 0.13 | 1.03 ± 0.16 | 1.04 ± 0.08 | 1.05 ± 0.07 | 1.00 ± 0.08 | 1.06 ± 0.06 | 1.03 ± 0.02 | 1.07 | 1.07 ± 0.14 | did not induce any SOS repair at a frequency significantly above that of the blank | 0.98±0.02 | 98.96% | no statistical difference from that of the vehicle blank | non-genotoxic | no difference in the DAA contents before and after heating
CC(=O)OCC1=C[C@H](O)[C@@H]2C(C(=O)O)=CO[C@@H](O[C@@H]3O[C@H](CO)[C@@H](O)[C@H](O)[C@H]3O)[C@H]12 [AA, asperulosidic acid] | 0.281 mg/mL | 0.276 mg/mL | 0.281 mg/mL | 0.287 mg/mL | 1.01 ± 0.05 | 1.04 ± 0.11 | 0.99 ± 0.06 | 1.04 ± 0.13 | 1.02 ± 0.08 | 1.11 ± 0.16 | 1.07 ± 0.04 | 1.09 | 1.09 ± 0.03 | did not induce any SOS repair at a frequency significantly above that of the blank |  | 99.22% | no statistical difference from that of the vehicle blank | non-genotoxic | 
